Laboratory results as given in BigSolDB 2.1.

O=C(O)c1ccco1
Settings | solubility (mole fraction)
in acetone, 280.15 K | 0.153
in acetone, 283.25 K | 0.159
in acetone, 288.55 K | 0.172
in acetone, 293.25 K | 0.189
in acetone, 299.15 K | 0.206
in acetone, 302.95 K | 0.218
in acetone, 308.45 K | 0.237
in acetone, 315.75 K | 0.265
in ethanol, 279.35 K | 0.152
in ethanol, 282.75 K | 0.162
in ethanol, 287.35 K | 0.176
in ethanol, 294.55 K | 0.198
in ethanol, 297.65 K | 0.208
in ethanol, 303.05 K | 0.225
in ethanol, 310.15 K | 0.25
in ethanol, 313.75 K | 0.268
in ethanol, 320.75 K | 0.29
in ethanol, 325.75 K | 0.311
in ethyl acetate, 281.35 K | 0.0858
in ethyl acetate, 287.05 K | 0.0983
in ethyl acetate, 291.95 K | 0.11
in ethyl acetate, 296.55 K | 0.124
in ethyl acetate, 301.25 K | 0.137
in ethyl acetate, 305.15 K | 0.147
in ethyl acetate, 307.45 K | 0.157
in ethyl acetate, 312.15 K | 0.171
in ethyl acetate, 316.35 K | 0.191
in ethyl acetate, 322.35 K | 0.216
in methyl acetate, 280.85 K | 0.106
in methyl acetate, 284.15 K | 0.117
in methyl acetate, 287.75 K | 0.127
in methyl acetate, 291.65 K | 0.137
in methyl acetate, 295.05 K | 0.146
in methyl acetate, 298.75 K | 0.156
in methyl acetate, 302.35 K | 0.166
in methyl acetate, 308.25 K | 0.184
in methyl acetate, 316.35 K | 0.216
in methyl acetate, 319.35 K | 0.232
in n-propanol, 282.95 K | 0.138
in n-propanol, 288.35 K | 0.158
in n-propanol, 293.75 K | 0.176
in n-propanol, 297.55 K | 0.195
in n-propanol, 303.15 K | 0.208
in n-propanol, 307.65 K | 0.226
in n-propanol, 312.55 K | 0.244
in n-propanol, 315.45 K | 0.258
in n-propanol, 319.75 K | 0.273
in n-propanol, 326.15 K | 0.3
in water, 284.85 K | 0.0032
in water, 295.25 K | 0.0064
in water, 299.45 K | 0.0079
in water, 304.65 K | 0.0095
in water, 310.65 K | 0.0127
in water, 313.25 K | 0.0156
in water, 316.85 K | 0.0184
in water, 319.45 K | 0.022
in water, 321.95 K | 0.0282
in water, 324.75 K | 0.0342
